Laboratory results as given in PubChem BioAssay AID1963856 (Molecular Pharmacology Branch, DTP, NCI, 2024).

System: LG0567-F671-PDC KRAS tumor spheroid viability
Test: Anticancer human tumor LG0567-F671-PDC patient-derived lung adenocarcinoma cell line growth inhibition [KRAS2]
Details: spheroids with HUVEC and MSC; for IC50: curve of first compound; for viability, T/C: stronger effect = lower value
Outline: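 Combination screen of spheroid viability in tumor-cell co-cultures with endothelial (HUVEC) and mesenchymal stem cell stroma. Each agent was tested in half-log dilutions, topping at clinical Cmax or at 10 microM without a known Cmax.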

[1] = second compound 0.0316 µM, first compound 0.0316 µM
[2] = second compound 0.0316 µM, first compound 0.1 µM
[3] = second compound 0.1 µM, first compound 0.0316 µM
[4] = second compound 0.1 µM, first compound 0.1 µM
[5] = second compound 0.316 µM, first compound 0.0316 µM
[6] = second compound 0.316 µM, first compound 0.1 µM
[7] = second compound 1 µM, first compound 0.0316 µM
[8] = second compound 1 µM, first compound 0.1 µM
[9] = second compound 3.16 µM, first compound 0.0316 µM
[10] = second compound 3.16 µM, first compound 0.1 µM
[11] = second compound 0.0316 µM, first compound 0.316 µM
[12] = second compound 0.0316 µM, first compound 1 µM
[13] = second compound 0.0316 µM, first compound 3.16 µM
[14] = second compound 0.0316 µM, first compound 10 µM
[15] = second compound 0.1 µM, first compound 0.316 µM
[16] = second compound 0.1 µM, first compound 1 µM
[17] = second compound 0.1 µM, first compound 3.16 µM
[18] = second compound 0.1 µM, first compound 10 µM
[19] = second compound 0.316 µM, first compound 0.316 µM
[20] = second compound 0.316 µM, first compound 1 µM
[21] = second compound 0.316 µM, first compound 3.16 µM
[22] = second compound 0.316 µM, first compound 10 µM
[23] = second compound 1 µM, first compound 0.316 µM
[24] = second compound 1 µM, first compound 1 µM
[25] = second compound 1 µM, first compound 3.16 µM
[26] = second compound 1 µM, first compound 10 µM
[27] = second compound 3.16 µM, first compound 0.316 µM
[28] = second compound 3.16 µM, first compound 1 µM
[29] = second compound 3.16 µM, first compound 3.16 µM
[30] = second compound 3.16 µM, first compound 10 µM
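Also: drug exposure lasted seven days after spheroids formed for three days.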
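For viability, T/C in this document: 100% = DMSO vehicle control viability.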

Compound | IC50 (second compound 0.0316 µM) [nM] | IC50 (second compound 0.1 µM) [nM] | IC50 (second compound 0.316 µM) [nM] | IC50 (second compound 1 µM) [nM] | IC50 (second compound 3.16 µM) [nM] | viability, T/C [1] [%] | viability, T/C [2] [%] | viability, T/C [3] [%] | viability, T/C [4] [%] | viability, T/C [5] [%] | viability, T/C [6] [%] | viability, T/C [7] [%] | viability, T/C [8] [%] | viability, T/C [9] [%] | viability, T/C [10] [%] | viability, T/C [11] [%] | viability, T/C [12] [%] | viability, T/C [13] [%] | viability, T/C [14] [%] | viability, T/C [15] [%] | also measured
CN(C)C/C=C/C(=O)Nc1cc2c(Nc3ccc(F)c(Cl)c3)ncnc2cc1O[C@H]1CCOC1 + C=CC(=O)N1CCN(c2nc(OCC3CCCN3C)nc3c2CCN(c2cccc4cccc(C)c24)C3)CC1CC#N | < 0.316 | < 0.316 | < 0.316 | < 0.316 | < 0.316 | 30.4 | 23.5 | 25.8 | 18.5 | 32.1 | 20.1 | 21.2 | 19 | 10.2 | 11.3 | – | – | – | – | – | viability, T/C (second compound 0.0316 µM, first compound 0.000316 µM): 39.3%; viability, T/C (second compound 0.0316 µM, first compound 0.001 µM): 40.4%; viability, T/C (second compound 0.0316 µM, first compound 0.00316 µM): 41.9%; viability, T/C (second compound 0.0316 µM, first compound 0.01 µM): 29.8%; viability, T/C (second compound 0.1 µM, first compound 0.000316 µM): 38.1%; viability, T/C (second compound 0.1 µM, first compound 0.001 µM): 32%; viability, T/C (second compound 0.1 µM, first compound 0.00316 µM): 26.5%; viability, T/C (second compound 0.1 µM, first compound 0.01 µM): 34.5%; viability, T/C (second compound 0.316 µM, first compound 0.000316 µM): 24.8%; viability, T/C (second compound 0.316 µM, first compound 0.001 µM): 28.8%; viability, T/C (second compound 0.316 µM, first compound 0.00316 µM): 34.4%; viability, T/C (second compound 0.316 µM, first compound 0.01 µM): 30.4%; viability, T/C (second compound 1 µM, first compound 0.000316 µM): 29.3%; viability, T/C (second compound 1 µM, first compound 0.001 µM): 32.6%; viability, T/C (second compound 1 µM, first compound 0.00316 µM): 25.1%; viability, T/C (second compound 1 µM, first compound 0.01 µM): 22.2%; viability, T/C (second compound 3.16 µM, first compound 0.000316 µM): 26.5%; viability, T/C (second compound 3.16 µM, first compound 0.001 µM): 10.8%; viability, T/C (second compound 3.16 µM, first compound 0.00316 µM): 15.7%; viability, T/C (second compound 3.16 µM, first compound 0.01 µM): 6.55%
COC(=O)c1ccc2c(C(=Nc3ccc(N(C)C(=O)CN4CCN(C)CC4)cc3)c3ccccc3)c(O)[nH]c2c1 + C=CC(=O)N1CCN(c2nc(OCC3CCCN3C)nc3c2CCN(c2cccc4cccc(C)c24)C3)CC1CC#N | < 31.6 | < 31.6 | < 31.6 | < 31.6 | < 31.6 | 23.7 | 23.2 | 21.6 | 20.4 | 23.2 | 21.1 | 26.6 | 26.3 | 17.9 | 29.2 | 21.9 | 30.4 | 26.8 | 31.9 | 23.4 | viability, T/C [16]: 27.4%; viability, T/C [17]: 26.1%; viability, T/C [18]: 27%; viability, T/C [19]: 22.7%; viability, T/C [20]: 27.8%; viability, T/C [21]: 27.7%; viability, T/C [22]: 28.3%; viability, T/C [23]: 27.6%; viability, T/C [24]: 28.8%; viability, T/C [25]: 23.9%; viability, T/C [26]: 23.4%; viability, T/C [27]: 13.2%; viability, T/C [28]: 0.34%; viability, T/C [29]: 0.12%; viability, T/C [30]: 0.93%
O=C(c1cc(Cc2n[nH]c(=O)c3ccccc23)ccc1F)N1CCN(C(=O)C2CC2)CC1 + C=CC(=O)N1CCN(c2nc(OCC3CCCN3C)nc3c2CCN(c2cccc4cccc(C)c24)C3)CC1CC#N | < 31.6 | < 31.6 | < 31.6 | < 31.6 | < 31.6 | 33.1 | 28.8 | 21.3 | 22.5 | 25.6 | 26 | 27.9 | 28.3 | 30.1 | 29.2 | 89.6 | 26 | 30 | 30.3 | 23.6 | viability, T/C [16]: 24.1%; viability, T/C [17]: 27.9%; viability, T/C [18]: 34.4%; viability, T/C [19]: 24.1%; viability, T/C [20]: 24.4%; viability, T/C [21]: 23.6%; viability, T/C [22]: 29.6%; viability, T/C [23]: 26%; viability, T/C [24]: 25.6%; viability, T/C [25]: 25.8%; viability, T/C [26]: 30.9%; viability, T/C [27]: 33.1%; viability, T/C [28]: 30.4%; viability, T/C [29]: 35.4%; viability, T/C [30]: 24.3%
